The text below walks through data of US20230080241A1 (priority 2020, published 2023).

Read-outs that look alike come from different tables or passages of the source.

The subject of one data set is Plasmodium falciparum. Briefly: in vitro asexual blood stage growth of Plasmodium falciparum. As to conditions: for IC50: Plasmodium falciparum, P. falciparum in vitro. In kind it is cell-based. The method, then: Presented herein is experiment data representing tranexamic acid as an antimalarial druggable scaffold. The results shown below show the efficacy of tranexamic acid against both Plasmodium falciparum and P. berghei across the parasite lifecycle. The data herein illustrates the ability of tranexamic acid to act as an antimicrobial agent, and more particularly, in some embodiments, as an antimalarial drug. Experiments were conducted to test, in vitro, the ability of tranexamic acid to impair the asexual intraerythrocytic development of P. falciparum. All of the symptoms associated with malaria infection are caused by the asexual blood stages, which makes them a logical therapeutic target.
Up to six different concentrations of tranexamic acid plus a negative control (carrier with no drug) were tested in a highly synchronous culture. A two-fold serial dilution starting at 200 mM was prepared, replenishing the drug daily for four consecutive days (i.e. two complete intraerythrocytic cycles).
FIG. 1 illustrates in vitro asexual blood stage growth at day 1 after 1 dose of tranexamic acid (TXA). Values are the mean of three technical replicates, and error bars represent the standard deviation. FIG. 2 illustrates in vitro asexual blood stage growth at day 3 after 3 doses of tranexamic acid (TXA). Values are the mean of three technical replicates, and error bars represent the standard deviation. FIG. 3 illustrates in vitro IC50 of tranexamic acid after three daily doses. Values are the mean of three technical replicates, relative to the minimal effect (i. e. the parasitemia from the samples with no drug). Error bars represent the standard deviation. Morphological defective parasites could be observed at day 4 in the two lowest tested concentrations (i.e. 12.5 and 6.25 mM). Healthy segmented schizonts were selected from the sample mock-treated in the absence of tranexamic acid (0 mM).

The subject of data set [1] is Plasmodium berghei ANKA mCherry. In kind it is in vivo, mice (outbred CD1). As to conditions: mice. The procedure: In addition to in vitro experiments to test the ability of tranexamic acid to impair the asexual intraerythrocytic development of P. falciparum, experiments were conducted to test, in vivo, the ability of tranexamic acid to cure asynchronized blood stage infections of Plasmodium berghei ANKA mCherry in mice. P. berghei is a species in the genus Plasmodium subgenus Vinckeia and is a protozoan parasite that causes malaria in rodents. Due to its ability to infect rodents and relative ease of genetic engineering, P. berghei is a popular model organism for the study of human malaria, and was thus used in the present disclosure.
Recipient mice (n=5/group; 3 groups) received blood from a donor mouse containing asynchronous asexual blood stages of P. berguei. Parasitemia was monitored and when it reached at least 5% mice were treated intravenously (i.v.) with 20, 10, or 0 mg of tranexamic acid in a phosphate-buffered saline (PBS) carrier. Blood smears from tail snips were prepared every 24 hours, or until the humane endpoint criteria was reached, to monitor parasitemia.
FIG. 4 illustrates in vivo asexual blood stage growth of P. berghei after the injection of the PBS carrier. […]

Take `NC[C@H]1CC[C@H](C(=O)O)CC1` [tranexamic acid]: the clearance of infection entry is “cleared the infection” in the data set with Plasmodium falciparum (100 mM, after 48 hours, two doses) and “completely cleared the infection” with Plasmodium falciparum (200 mM, after 24 hours, single dose, FIG. 1). The parasite morphology entry with Plasmodium falciparum (12.5 and 6.25 mM, day 4, some parasites arrested at schizont-like morphology) is on record as “morphological defects could be observed”. The IC50 in the data set on Plasmodium falciparum (72 h, after 3 daily doses, FIG. 3, read-out: IC50 at day 3) was 11.4 mM; in the data set with Plasmodium falciparum (drug replenished on a daily basis, read-out: in vitro IC50), 11.4 mM. Further, the growth delay result with Plasmodium falciparum (some of the tested concentrations, rings and early trophozoites on day 3 (72 hours after first dose), FIG. 2) is listed as “a growth delay was observed”. Further, the figures for the “equivalent in vitro concentration based on estimated volemia” value in data set [1] (10 mg injection i.v.) and in data set [1] (20 mg injection i.v.) were “approximately 37 mM” and roughly 75 mM, respectively.

Broadly, the IC50 is the concentration that gives 50% inhibition.
